Holding throughout (assay type): biochemical
One experiment deals with α-amylase. Kind of experiment: α-amylase inhibition (in vitro anti-diabetic activity). The source says:
(§1) The anti-diabetic effects of the ethyl acetate fraction from dried P. guajava leaves, collected in March and August, were compared in vitro. This comparison involved measuring the inhibition of carbohydrate hydrolyzing enzymes, including α-amylase, α-glucosidase, and β-galactosidase, as detailed in Naguib et al.[28].

The test system of a further experiment is α-glucosidase. The experiment can be described thus: α-glucosidase inhibition (in vitro anti-diabetic activity).
Excerpt: as §1

The test system of a further experiment is β-galactosidase. The experiment can be described thus: β-galactosidase inhibition (in vitro anti-diabetic activity).
Excerpt: as §1

In experiment [1] the target is T1, 5-LOX enzyme (human recombinant) (Homo sapiens, UniProt P09917).
T1 construct: purchased Sigma-Aldrich
T1 sequence (P09917 1-674): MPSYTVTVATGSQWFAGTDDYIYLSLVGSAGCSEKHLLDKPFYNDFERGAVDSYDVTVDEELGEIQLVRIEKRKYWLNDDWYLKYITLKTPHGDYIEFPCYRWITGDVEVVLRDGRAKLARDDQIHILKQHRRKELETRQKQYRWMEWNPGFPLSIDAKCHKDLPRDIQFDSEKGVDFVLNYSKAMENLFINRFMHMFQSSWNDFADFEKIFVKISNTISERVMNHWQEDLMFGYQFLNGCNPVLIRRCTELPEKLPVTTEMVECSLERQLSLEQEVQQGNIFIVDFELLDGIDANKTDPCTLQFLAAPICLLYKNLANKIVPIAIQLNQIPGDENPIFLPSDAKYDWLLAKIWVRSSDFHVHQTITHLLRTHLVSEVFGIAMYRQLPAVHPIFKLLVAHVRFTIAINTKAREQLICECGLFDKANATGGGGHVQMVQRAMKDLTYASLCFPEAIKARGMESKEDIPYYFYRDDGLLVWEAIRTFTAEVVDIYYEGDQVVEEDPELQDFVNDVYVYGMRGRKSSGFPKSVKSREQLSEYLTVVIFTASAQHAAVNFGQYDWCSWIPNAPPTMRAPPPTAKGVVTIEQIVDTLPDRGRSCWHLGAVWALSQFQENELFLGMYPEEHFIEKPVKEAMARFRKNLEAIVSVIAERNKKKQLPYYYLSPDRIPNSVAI
The experiment can be described thus: 5-LOX enzyme inhibition assay (5-LOX kit).

Experiment [2] can be described thus: DPPH free radical scavenging assay. On the procedure:
(§2) Two distinct antioxidant assays were performed to evaluate the radical scavenging potential of the ethyl acetate fraction obtained from dried P. guajava leaves collected in March and August. […] Ascorbic acid served as the reference standard.

The nature of experiment [3]: ABTS free radical scavenging assay. On the procedure:
as §2

By inhibition is commonly meant the percentage by which the read-out fell short of the control.

Marks after values point to notes of the source that are not given here.

On to `C[C@H]1O[C@H](O[C@H]2[C@H](O)[C@@H](O)[C@@H](O[C@H]3[C@H](O)[C@@H](O)C(O)O[C@@H]3CO)O[C@@H]2CO)[C@H](O)[C@@H](O)[C@@H]1N[C@H]1C=C(CO)[C@@H](O)[C@H](O)[C@H]1O` (stereo partly drawn) [Acarbose], for which the results for the “α-amylase Inhibition %” value in the experiment on α-amylase (10 µg/mL), in the experiment with α-amylase (50 µg/mL) and in the experiment with α-amylase (100 µg/mL) were 38.57 ± 0.17^e %, 79.54 ± 0.12^d % and 86.31 ± 0.09^f %, respectively. Moreover, the “α-glucosidase Inhibition %” value in the experiment with α-glucosidase (10 µg/mL) is recorded as 41.89 ± 0.10^c %; in the experiment on α-glucosidase (50 µg/mL), 80.36 ± 0.08^d %; in the experiment with α-glucosidase (100 µg/mL), 89.57 ± 0.15^f %. Further, the entries for the “β-galactosidase Inhibition %” value in the experiment with β-galactosidase (10 µg/mL), in the experiment with β-galactosidase (50 µg/mL) and in the experiment on β-galactosidase (100 µg/mL) were 43.78 ± 0.12^e %, 83.72 ± 0.09^f % and 91.40 ± 0.10^g %, respectively.
As for `CC(c1cc2ccccc2s1)N(O)C(N)=O` (stereo not drawn) [Zileuton], the inhibition at 1 µg/mL in experiment [1] (1 µg/ml) was determined as 40.62 ± 0.08%. Moreover, the inhibition at 10 µg/mL in experiment [1] (10 µg/ml) came out at 61.39 ± 0.14%. In addition, in experiment [1] (100 µg/ml), the inhibition at 100 µg/mL was found to be 79.42 ± 0.13%.
On to `O=C1O[C@H]([C@@H](O)CO)C(O)=C1O` [Ascorbic acid], for which the entries for the “DPPH Inhibition percentages (%)” value in experiment [2] (10 µg/ml), in experiment [2] (50 µg/ml) and in experiment [2] (100 µg/ml) were 73.12 ± 0.15^g %, 82.47 ± 0.13^h % and 90.52 ± 0.09^i %, respectively. The “ABTS Inhibition percentages (%)” value in experiment [3] (10 µg/ml) was 76.02 ± 0.11^g %; in experiment [3] (50 µg/ml), 81.43 ± 0.08^h %; in experiment [3] (100 µg/ml), 87.26 ± 0.13^i %.
